Results reported in patent US9439888B2, “Tetrazolones as a carboxylic acid bioisosteres” (RIGEL PHARMACEUTICALS, INC., priority 2015, dated 2016).

Experiments:
[1] = target: T1, angiotensin II receptor type 1 (AT1) (Homo sapiens, UniProt P30556); assay: AT1 antagonist activity: inhibition of response to 3 nM angiotensin-II, intracellular Ca2+ by fluorimetry; format: cell-based; conditions: HEK-293 cells expressing hAT1
T1 construct: expressed in transfected cells; host or cells: HEK-293
T1 sequence (P30556 1-359): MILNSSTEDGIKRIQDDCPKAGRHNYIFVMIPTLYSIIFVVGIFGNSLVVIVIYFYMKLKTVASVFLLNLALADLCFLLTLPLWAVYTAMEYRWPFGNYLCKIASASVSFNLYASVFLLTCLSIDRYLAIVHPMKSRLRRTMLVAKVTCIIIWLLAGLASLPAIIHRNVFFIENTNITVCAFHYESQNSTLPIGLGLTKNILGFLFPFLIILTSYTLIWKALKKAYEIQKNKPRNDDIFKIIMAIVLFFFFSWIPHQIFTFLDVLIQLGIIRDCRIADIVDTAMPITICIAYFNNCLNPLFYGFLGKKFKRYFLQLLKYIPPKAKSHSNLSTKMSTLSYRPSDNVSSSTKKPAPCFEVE

[2] = target: T2, retinoid X receptor alpha (RXRa) (Homo sapiens, UniProt P19793); assay: RXRα agonist activity assay
T2 sequence (P19793 1-462): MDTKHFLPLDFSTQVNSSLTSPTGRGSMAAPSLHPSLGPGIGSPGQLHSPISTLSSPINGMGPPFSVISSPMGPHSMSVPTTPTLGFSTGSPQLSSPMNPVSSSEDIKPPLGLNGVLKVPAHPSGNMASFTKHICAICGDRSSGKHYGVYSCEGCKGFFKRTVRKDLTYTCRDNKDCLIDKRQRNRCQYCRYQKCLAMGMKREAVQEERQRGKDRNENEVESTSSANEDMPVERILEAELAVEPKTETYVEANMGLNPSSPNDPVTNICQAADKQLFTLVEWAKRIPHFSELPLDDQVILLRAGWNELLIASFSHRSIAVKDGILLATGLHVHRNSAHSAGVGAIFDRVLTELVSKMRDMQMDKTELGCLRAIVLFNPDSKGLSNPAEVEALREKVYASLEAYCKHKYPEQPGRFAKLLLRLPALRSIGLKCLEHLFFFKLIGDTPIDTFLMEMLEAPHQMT

## CCCc1nc2c(C)cc(-c3nc4ccccc4n3C)cc2n1Cc1ccc(-c2ccccc2-n2nn[nH]c2=O)cc1 [6t]
[1]
  IC50: 1.7 nM
  Kb: 0.14 nM

## C=C(c1ccc(-n2nn[nH]c2=O)cc1)c1cc2c(cc1C)C(C)(C)CCC2(C)C [6u, 1-(4-(1-(3,5,5,8,8-pentamethyl-5,6,7,8-tetrahydronaphthalen-2-yl)vinyl)phenyl)-1,4-dihydro-5h-tetrazol-5-one]
[2]
  EC50: 64 nM
